pEC50: −log10 of the molar value.
Assays:
[1] = system: M2-10B4 bone marrow stromal cells; assay: osteogenic differentiation / ALP enzymatic activity in M2-10B4 bone marrow stromal cells; assay type: cell-based; conditions: M2-10B4 cells; for pEC50: read-out: EC50 based on activation of ALP; for ALP Activity: ± SD
Method: Osteogenic differentiation was assessed by the induction of alkaline phosphatase (ALP) enzymatic activity, as well as induced expression of osteogenic differentiation marker genes ALP, bone sialoprotein (BSP), and osterix (OSX).

Hedgehog (Hh) signaling = assay: Hedgehog signaling activation: expression of Hh target genes Ptch and HIP in M2-10B4 cells; assay type: cell-based
Method: The expression of Ptch gene in M2-10B4 cells in vitro 4 days after initial contact with each oxysterol at a concentration of 1 μM is shown in FIG. 8. The expression of HIP gene in M2-10B4 cells in vitro 4 days after initial contact with each oxysterol at a concentration of 1 μM is shown in FIG. 9.

[2] = in vitro hydroxyapatite (HAP) binding assay; conditions: for binding to HAP (in words): in vitro, estradiol at 20 μM; for % Binding to Hydroxyapatite: 20 μM analyte, HAP 50 mg/mL, 50 mM Tris-HCl pH 7.5, 20% DMSO, 10 minutes
Method: An in vitro HAP binding assay was conducted as follows. A 1 mM solution of each analyte was made in 100% dimethylsulfoxide (DMSO). A further dilution was then made to form a 20 μM solution of each analyte in 50 mM Tris-HCl Buffer at pH 7.5 with 20% DMSO. […] The HAP concentration used was 50 mg/mL.
For each analyte, samples were prepared in triplicate. The control samples (1 mL of 20 μM analyte) were transferred into a microcentrifuge tube. To a second set of samples (1 mL of 20 μM analyte) in a microcentrifuge tube was added 50 mg of HAP. The samples were vortexed, gently mixed with inversion for 10 minutes at room temperature, and then centrifuged at 4,400 rpm for 2 minutes to sediment the HAP contained in the samples. The supernatant was transferred to another set of microcentrifuge tubes.
An electronic spectral scan (ultraviolet-visible) from 220-520 nm was obtained for each analyte using a Bio-Rad Smart-Spec 3000. The blank was 50 mM Tris-HCl Buffer, pH 7.5, 20% DMSO. The wavelength of maximum absorbance (λmax) was determined, and the extinction coefficient (ε) was calculated using the Beer-Lambert Law.
The absorbance of the samples incubated with HAP was measured at λmax and the molar concentration of the analyte was then determined using the Beer-Lambert Law and the previously calculated ε. The concentration of the analytes 17β-estradiol, Oxy149, Oxy153, and Oxy155 without and with contact with HAP is shown in FIG. 10.
The fraction of analyte absorbed to HAP for each sample was subsequently calculated using the following formula for % binding, (Ho−H)/Ho*100=% binding with Ho being the mean concentration of control samples and H being the mean calculated concentration of samples treated with HAP.

C3H10T1/2 cells = assay: alkaline phosphatase activity in C3H10T1/2 cells after 4 days of treatment; assay type: cell-based; conditions: 1 μM
Method: [drawing 19] (In Oxy133 the 6-hydroxyl group is more reactive toward succinic anhydride than the 3-hydroxyl.) The resulting conjugate, OXY149, retains most of the osteogenic activity of the parent Oxy133 in C3H10T1/2 cells determined by the level of induction of osteogenic differentiation marker, alkaline phosphatase activity after 4 days of treatment (Control: 2±1; Oxy133 (1 μM): 390±10; Oxy149 (1 μM): 100±12; Oxy149 (5 μM): 500±18; Oxy149 (10 μM); 480±12; Oxy149 (20 μM): 470±25). BTA-linker 1 can be attached via the 3- and/or 6-positions of OXY133 using tunable linker attachments.

[3] = half-life in human liver microsomes; assay type: in vitro ADME; conditions: read-out: half-life in human liver microsomes (HLM)
From the text: Naturally-occurring oxysterols, 20(S)-hydroxycholesterol, 22(S)-hydroxycholesterol and 22(R)-hydroxycholesterol can be used as potential osteogenic agents (Kha; Richardson; Amantea). A series of potent osteogenic oxysterol analogues was identified, which are efficacious both in vitro and in vivo. Members of this family of semi-synthetic oxysterols induce robust bone formation and spine fusion in rats when applied locally between transverse processes via a collagen sponge (T. S. Johnson). The compound OXY133 is an analog in the series with enhanced osteogenic activity (FIG. 1) (Montgomery). Oxy133 can induce osteogenesis in cultured human primary mesenchymal stem cells and induce spine fusion in rats in an accelerated manner compared to other analogues. Oxy133 can induce robust osteogenesis in non-rodent models of bone disease such as rabbit spine fusion and rabbit calvarial defect models. Oxy133 is a drug development candidate for local administration with potential application in spine fusion and repair of non-union fractures. […] Furthermore, due to the possible mechanism of osteogenesis, a transient activation of the Hh-pathway in MSCs, increasing selectivity for bone tissue while minimizing the exposure to other tissues may be prudent. This can be accomplished by linking a bone targeting agent (BTA) to the oxysterol molecule that selectively delivers it to bone.

[4] = oxysterol + cyclopamine (Cyc; 5 μM)

| Structure (SMILES) | osteogenic differentiation (ALP activity, ALP, BSP, OSX gene expression) [1] | pEC50 [1] | ALP Activity ([1]; oxysterol 1 μM) [units/mg protein] | ALP Activity [1, 4] [units/mg protein] | activation of Hedgehog (Hh) signaling by induced expression of Ptch and HIP (Hedgehog (Hh) signaling) | binding to HAP (in words) [2] | alkaline phosphatase activity (C3H10T1/2 cells) | half-life [3] [min] | % Binding to Hydroxyapatite [2] [%] |
| --- | --- | --- | --- | --- | --- | --- | --- | --- | --- |
| CCCCCCC(C)(O)C1CCC2C3CC(OC(=O)C(N)CC(=O)NCCOCCOCC(=O)Nc4ccc(OC)c(C(N)=O)c4O)C4CC(O)CCC4(C)C3CCC21C (stereo not shown) [Oxy154] | induce osteogenic differentiation | 6.20 | 390 ± 68 | 18 ± 2 | activate Hedgehog (Hh) signaling | can bind hydroxyapatite (HAP) | – | – | – |
| CCCCCC[C@](C)(O)[C@H]1CC[C@H]2[C@@H]3C[C@H](O)[C@H]4C[C@@H](O)CC[C@]4(C)[C@H]3CC[C@@]21C [Oxy133, reference compound] | – | – | 714 ± 5 | 31 ± 7 | – | – | 390±10 | < 5 | – |
| CCCCCCC(C)(O)C1CCC2C3CC(OC(=O)C(N)CC(=O)NCCOCCOCC(=O)Nc4ccc(OC)c(C(N)=O)c4O)C4CC(OC(=O)C(N)CC(=O)NCCOCCOCC(=O)Nc5ccc(OC)c(C(N)=O)c5O)CCC4(C)C3CCC21C (stereo not shown) [Oxy155] | induce osteogenic differentiation | 6.48 | 582 ± 8 | 39 ± 2 | activate Hedgehog (Hh) signaling | can bind hydroxyapatite (HAP) | – | – | 76.68 |
| C[C@]12CC[C@@H]3c4ccc(O)cc4CC[C@H]3[C@@H]1CC[C@@H]2O [17β-estradiol, reference compound] | – | – | – | – | – | no binding to HAP | – | – | −1.95 |
